Results taken from patent publication US8450362B2, “Amidine-containing compounds useful as muscarinic receptor antagonists” (Theravance, Inc., priority 2007, dated 2013).

Legend:
[1] = tested on: MCh bronchoconstrictor response; assay: Rat Einthoven assay (bronchoprotection, inhaled dosing); assay type: in vivo; settings: inhalation; for ID50 (bronchoprotection): 1.5 hrs post-dose
Procedure: All test compounds are diluted in sterile water and are dosed via the inhalation route (IH). The rats (Sprague-Dawley, male, 250-350 g) are exposed to the aerosol generated from an LC Star Nebulizer Set and driven by a mixture of gases (5% CO2/95% atmospheric air). Each test compound solution is nebulized over a 10 minute time period in a pie shaped dosing chamber capable of holding six rats. At predetermined time points after inhalation of compound, the Einthoven assay is performed.
Thirty minutes prior to the start of pulmonary evaluation, the animals are anesthetized with inactin (thiobutabarbital, 120 mg/kg IP). The jugular vein is catheterized with saline filled polyethylene catheters (PE-50) and used to infuse MCh. The trachea is then dissected and cannulated with a 14G needle and used for rat ventilation during pulmonary evaluation. Once surgery is complete, rats are ventilated using a piston respirator set at a stroke volume of 1 ml/100 g body weight but not exceeding 2.5 ml volume, and at a rate of 90 strokes per minute.
The changes in pressure that occur with each breath are measured. Baseline values are collected for at least 2.5 minutes then rats are challenged non-cumulatively with 2-fold incremental increases of the bronchoconstrictor MCh (5, 10, 20, 40 and 80 μg/ml). The MCh is infused for 2.5 minutes from a syringe pump at a rate of 2 mL/kg/min. The animals are euthanized upon completion of the studies.
Changes in ventilation pressure (cm H2O) in treated animals are expressed as % inhibition of MCh response relative to control animals.
Standard muscarinic antagonists were evaluated in the rat Einthoven assay 1.5 hrs post-dose.
Standards tiotropium and ipratropium were also evaluated 24 hr and/or 6 hr post-dose in the rat Einthoven assay. […] The observed loss of activity at this time point (6 hr) is consistent with its relatively short duration of action in the clinic.

[2] = tested on: pilocarpine-induced salivation; assay: Rat antisialagogue assay; assay type: in vivo; settings: evaluated at 1, 6 and 24 hr post-dose
Procedure: Rats (Sprague-Dawley, male, 250-350 g) are dosed, anesthetized and cannulated as described for Assay 3. At predetermined time points and after surgery, animals are placed on their dorsal side at a 20° incline with their head in a downward slope. A pre-weighed gauze pad is inserted in the animal's mouth and the muscarinic agonist pilocarpine (PILO) (3 mg/kg, iv.) is administered. Saliva produced during 10 minutes post-PILO is measured gravimetrically by determining the weight of the gauze pad before and after PILO. Antisialagogue effects are expressed as % inhibition of salivation relative to control animals.
The rat antisialagogue assay was developed to assess systemic exposure and calculate the lung selectivity index (LSI) of test compounds. The standard, tiotropium, was evaluated in this model at 1, 6, and 24 hr post-dose. […] This finding is consistent with the peak effects observed in the Einthoven assay. This model is a modified version of the procedure described in Rechter, “Estimation of anticholinergic drug effects in mice by antagonism against pilocarpine-induced salivation” Ata Pharmacol Toxicol 24:243-254 […]. The mean weight of saliva in vehicle-treated animals, at each pre-treatment time, is calculated and used to compute % inhibition of salivation, at the corresponding pre-treatment time, at each dose. […]

Row | Structure (SMILES) | ID50 (bronchoprotection) [1] | 6 hr versus 24 hr potency values [1] | fold more potent at 6 hr and 24 hr compared to 1.5 hr potency ([1]; 6 hr and 24 hr vs 1.5 hr) | time of peak bronchoprotection post-dose ([1]; slow onset of effect) | time post dose of greatest potency at inhibiting pilocarpine-induced salivation [2] | fold less potent 6-hr post-dose compared to 1.5 hr potency ([1]; 10 and 30 μg/ml, 6 hr vs 1.5 hr)
1 | C[N+]1(C)CCC(OC(=O)C(O)(c2ccccc2)C2CCCC2)C1 (centres unmarked) [glycopyrrolate] | 15 µg/mL | – | – | – | – | –
2 | C[N+]1(C)[C@@H]2C[C@@H](OC(=O)C(O)(c3cccs3)c3cccs3)C[C@H]1[C@@H]1O[C@@H]12 [tiotropium] | 6 µg/mL | not significantly different from each other | about 2 fold | 6 h | 6 h | –
3 | CC(C)[N+]1(C)[C@@H]2CC[C@H]1C[C@@H](OC(=O)C(CO)c1ccccc1)C2 (some centres unmarked) [ipratropium] | 4.4 µg/mL | – | – | – | – | about 3 fold
